20 molecules from US9328106B2, “Cyclic ether pyrazol-4-yl-heterocyclyl-carboxamide compounds and methods of use” (Genentech, Inc., priority 2012, dated 2016) can be followed below.

PIM1, sequence (P11309 whole entry): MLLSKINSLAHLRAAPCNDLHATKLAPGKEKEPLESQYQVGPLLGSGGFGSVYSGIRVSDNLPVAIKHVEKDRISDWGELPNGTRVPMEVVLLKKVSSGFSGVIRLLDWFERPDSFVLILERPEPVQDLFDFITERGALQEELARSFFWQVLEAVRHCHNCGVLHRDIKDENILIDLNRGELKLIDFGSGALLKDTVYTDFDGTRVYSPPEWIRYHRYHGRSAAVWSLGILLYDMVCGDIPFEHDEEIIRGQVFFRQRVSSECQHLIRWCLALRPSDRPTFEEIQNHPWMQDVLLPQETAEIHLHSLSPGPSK

The first experiment has as its target PIM1 (Homo sapiens (Human), UniProt P11309). The experiment can be described thus: biochemical. The class given is biochemical.
Details: not given
As a reminder, the Ki is a measure of affinity in units of concentration, obtained from inhibition or displacement. For `Cn1ncc(NC(=O)c2csc(-c3c(F)cc(C(O)C4CC4)cc3F)n2)c1[C@@H]1CC[C@@H](N)[C@H](F)CO1` (stereo partly drawn) [Example 275, N-(5-((2S,5R,6S)-5-amino-6-fluorooxepan-2-yl)-1-methyl-1H-pyrazol-4-yl)-2-(4-(cyclopropyl(hydroxy)methyl)-2,6-difluorophenyl)thiazole-4-carboxamide], the affinity, expressed as Ki, was 0.037 nM.

The same experiment, now with this note: 20 pM PIM1, 1 μM FAM-peptide, 10 μM ATP, 90 minutes at room temperature; read-out: PIM1 LC3K (KI).
For the molecule `Cc1c(-c2nc(C(=O)Nc3cnn(C)c3[C@@H]3CC[C@@H](N)[C@H](F)CO3)c(N)s2)cnn1C` [Example 257, 5-amino-N-(5-((2S,5R,6S)-5-amino-6-fluorooxepan-2-yl)-1-methyl-1H-pyrazol-4-yl)-2-(1,5-dimethyl-1H-pyrazol-4-yl)thiazole-4-carboxamide], the inhibition constant Ki stood at 0.025 nM. On to `CO[C@H]1CO[C@H](c2c(NC(=O)c3csc(-c4c(F)ccc(F)c4F)n3)cnn2C)CC[C@H]1N` [Example 258, N-(5-((2S,5R,6R)-5-amino-6-methoxyoxepan-2-yl)-1-methyl-1H-pyrazol-4-yl)-2-(2,3,6-trifluorophenyl)thiazole-4-carboxamide], for which the inhibitory constant (Ki) was found to be 0.145 nM. On the same count and under the same terms, the same measure for `Cn1ncc(NC(=O)c2nc(-c3ccc(C(F)(F)F)cc3F)sc2N)c1[C@@H]1CC[C@@H](N)[C@@H](F)CO1` [Example 259, 5-amino-N-(5-((2S,5R,6R)-5-amino-6-fluorooxepan-2-yl)-1-methyl-1H-pyrazol-4-yl)-2-(2-fluoro-4-(trifluoromethyl)phenyl)thiazole-4-carboxamide]: 0.01 nM. In the case of `Cn1ncc(NC(=O)c2nc(-c3c(F)ccc(F)c3F)sc2N)c1[C@@H]1CC[C@@H](N)[C@@H](F)CO1` [Example 260, 5-amino-N-(5-((2S,5R,6R)-5-amino-6-fluorooxepan-2-yl)-1-methyl-1H-pyrazol-4-yl)-2-(2,3,6-trifluorophenyl)thiazole-4-carboxamide], the Ki was 0.004 nM. With `Cn1ncc(NC(=O)c2nc(-c3cc(F)cc(F)c3F)sc2N)c1[C@@H]1CC[C@@H](N)[C@@H](F)CO1` [Example 261, 5-amino-N-(5-((2S,5R,6R)-5-amino-6-fluorooxepan-2-yl)-1-methyl-1H-pyrazol-4-yl)-2-(2,3,5-trifluorophenyl)thiazole-4-carboxamide], the Ki was found to be 0.037 nM. The same measure, in the same setting: the same measure for `CO[C@H]1CO[C@H](c2c(NC(=O)c3nc(-c4c(F)ccc(F)c4F)sc3N)cnn2C)CC[C@H]1N` [Example 262, 5-amino-N-(5-((2S,5R,6R)-5-amino-6-methoxyoxepan-2-yl)-1-methyl-1H-pyrazol-4-yl)-2-(2,3,6-trifluorophenyl)thiazole-4-carboxamide]: 0.01 nM. `CO[C@H]1CO[C@H](c2c(NC(=O)c3nc(-c4cc(F)cc(F)c4F)sc3N)cnn2C)CC[C@H]1N` [Example 263, 5-amino-N-(5-((2S,5R,6R)-5-amino-6-methoxyoxepan-2-yl)-1-methyl-1H-pyrazol-4-yl)-2-(2,3,5-trifluorophenyl)thiazole-4-carboxamide]: the inhibition constant (Ki) is 0.127 nM. With `CO[C@H]1CO[C@H](c2c(NC(=O)c3nc(-c4cc(C)ccc4F)sc3N)cnn2C)CC[C@H]1N` [Example 264, 5-amino-N-(5-((2S,5R,6R)-5-amino-6-methoxyoxepan-2-yl)-1-methyl-1H-pyrazol-4-yl)-2-(2-fluoro-5-methylphenyl)thiazole-4-carboxamide], the Ki is 0.02 nM.

Consider `COc1cc(F)c(-c2nc(C(=O)Nc3cnn(C)c3[C@@H]3CC[C@@H](N)[C@@H](OC)CO3)cs2)c(F)c1` [Example 265, N-(5-((2S,5R,6R)-5-amino-6-methoxyoxepan-2-yl)-1-methyl-1H-pyrazol-4-yl)-2-(2,6-difluoro-4-methoxyphenyl)thiazole-4-carboxamide], for which the Ki was 0.034 nM.

Regarding `Cn1ncc(NC(=O)c2nc(-c3ccccc3OC(F)(F)F)sc2N)c1[C@@H]1CC[C@@H](N)[C@@H](F)CO1` [Example 266, 5-amino-N-(5-((2S,5R,6R)-5-amino-6-fluorooxepan-2-yl)-1-methyl-1H-pyrazol-4-yl)-2-(2-(trifluoromethoxy)phenyl)thiazole-4-carboxamide], the inhibition constant (Ki) turned out to be 0.155 nM. Still for that read-out and setting: the same measure for `Cn1ncc(NC(=O)c2nc(-c3cccc(F)c3C(F)(F)F)sc2N)c1[C@@H]1CC[C@@H](N)[C@@H](F)CO1` [Example 267, 5-amino-N-(5-((2S,5R,6R)-5-amino-6-fluorooxepan-2-yl)-1-methyl-1H-pyrazol-4-yl)-2-(3-fluoro-2-(trifluoromethyl)phenyl)thiazole-4-carboxamide]: 0.098 nM; for `Cn1ncc(NC(=O)c2nc(-c3cccc(C(F)(F)F)c3F)sc2N)c1[C@@H]1CC[C@@H](N)[C@@H](F)CO1` [Example 268, 5-amino-N-(5-((2S,5R,6R)-5-amino-6-fluorooxepan-2-yl)-1-methyl-1H-pyrazol-4-yl)-2-(2-fluoro-3-(trifluoromethyl)phenyl)thiazole-4-carboxamide]: 0.028 nM. Still for that read-out and setting: as for `CO[C@H]1CO[C@H](c2c(NC(=O)c3nc(-c4c(C)cccc4F)sc3N)cnn2C)CC[C@H]1N` [Example 269, 5-amino-N-(5-((2S,5R,6R)-5-amino-6-methoxyoxepan-2-yl)-1-methyl-1H-pyrazol-4-yl)-2-(2-fluoro-6-methylphenyl)thiazole-4-carboxamide], the figure is 0.052 nM; as for `Cn1ncc(NC(=O)c2nc(-c3ccccc3C(F)(F)F)sc2N)c1[C@@H]1CC[C@@H](N)[C@@H](F)CO1` [Example 270, 5-amino-N-(5-((2S,5R,6R)-5-amino-6-fluorooxepan-2-yl)-1-methyl-1H-pyrazol-4-yl)-2-(2-(trifluoromethyl)phenyl)thiazole-4-carboxamide], 0.053 nM; as for `Cn1ncc(NC(=O)c2nc(C3=CCCC3)sc2N)c1[C@@H]1CC[C@@H](N)[C@@H](F)CO1` [Example 271, 5-amino-N-(5-((2S,5R,6R)-5-amino-6-fluorooxepan-2-yl)-1-methyl-1H-pyrazol-4-yl)-2-(cyclopent-1-en-1-yl)thiazole-4-carboxamide], 0.062 nM. Turning to `Cn1ncc(NC(=O)c2nc(C3CCCC3)sc2N)c1[C@@H]1CC[C@@H](N)[C@@H](F)CO1` [Example 272, 5-amino-N-(5-((2S,5R,6R)-5-amino-6-fluorooxepan-2-yl)-1-methyl-1H-pyrazol-4-yl)-2-cyclopentylthiazole-4-carboxamide], the Ki was 0.992 nM. Still for that read-out and setting: the same measure for `Cc1cccc(F)c1-c1nc(C(=O)Nc2cnn(C)c2[C@@H]2CC[C@@H](N)[C@@H](F)CO2)c(N)s1` [Example 273, 5-amino-N-(5-((2S,5R,6R)-5-amino-6-fluorooxepan-2-yl)-1-methyl-1H-pyrazol-4-yl)-2-(2-fluoro-6-methylphenyl)thiazole-4-carboxamide]: 0.007 nM; for `Cc1ccc(F)c(-c2nc(C(=O)Nc3cnn(C)c3[C@@H]3CC[C@@H](N)[C@@H](F)CO3)c(N)s2)c1` [Example 274, 5-amino-N-(5-((2S,5R,6R)-5-amino-6-fluorooxepan-2-yl)-1-methyl-1H-pyrazol-4-yl)-2-(2-fluoro-5-methylphenyl)thiazole-4-carboxamide]: 0.02 nM. Consider `COC(c1cc(F)c(-c2nc(C(=O)Nc3cnn(C)c3[C@@H]3CC[C@@H](N)[C@H](F)CO3)cs2)c(F)c1)C1CC1` (stereo partly drawn) [Example 276, N-(5-((2S,5R,6S)-5-amino-6-fluorooxepan-2-yl)-1-methyl-1H-pyrazol-4-yl)-2-(4-(cyclopropyl(methoxy)methyl)-2,6-difluorophenyl)thiazole-4-carboxamide], for which the Ki turned out to be 0.084 nM.
